Bridge positions count the residues as written; N and C are the ends. Square brackets hold non-standard residues; d marks the D form. Peptide text beside a SMILES is read from it. * marks the point of attachment. ξ: configuration not given here. Phe(4-CONH2) = NC(=O)c1ccc(C[C@H](N)C(=O)O)cc1; Phe(4-COOH) = N[C@@H](Cc1ccc(C(=O)O)cc1)C(=O)O; Bip = N[C@@H](Cc1ccc(-c2ccccc2)cc1)C(=O)O; Phe(3-OMe) = COc1cccc(C[C@H](N)C(=O)O)c1; Phe(3-Me) = Cc1cccc(C[C@H](N)C(=O)O)c1; Val(3-OH) = CC(C)(O)[C@H](N)C(=O)O; aIle = CC[C@@H](C)[C@H](N)C(=O)O; 3Pal = N[C@@H](Cc1cccnc1)C(=O)O; 4Pal = N[C@@H](Cc1ccncc1)C(=O)O; Cha = N[C@@H](CC1CCCCC1)C(=O)O; Cit = NC(=O)NCCC[C@H](N)C(=O)O; Ile(3ξ) = CCC(C)[C@H](N)C(=O)O; Thr(3ξ) = CC(O)[C@H](N)C(=O)O; Carboxymethyl = O=C(O)C*; NMeA = CN[C@@H](C)C(=O)O; Nle = CCCC[C@H](N)C(=O)O; Dab = NCC[C@H](N)C(=O)O; Dap = NC[C@H](N)C(=O)O; ξV = CC(C)C(N)C(=O)O

The IC50 is the concentration that inhibits the measured activity by half.

T1 sequence (Q15116 25-288): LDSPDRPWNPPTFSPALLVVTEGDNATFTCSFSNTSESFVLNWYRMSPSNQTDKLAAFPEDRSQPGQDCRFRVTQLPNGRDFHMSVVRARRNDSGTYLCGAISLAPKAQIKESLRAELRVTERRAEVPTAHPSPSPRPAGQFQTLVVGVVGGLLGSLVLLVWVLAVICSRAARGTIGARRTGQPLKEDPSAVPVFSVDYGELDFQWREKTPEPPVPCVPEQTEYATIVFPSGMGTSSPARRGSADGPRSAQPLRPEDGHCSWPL

The assay has as its target T1, PE-labeled human PD-L1-Ig binding to Jurkat cell line over-expressing human PD-1 (Jurkat-PD-1) (Homo sapiens, UniProt Q15116).
T1 construct: expressed in transfected cells; host or cells: Jurkat
The assay can be described thus: Jurkat-PD-1 Cell Binding High-Content Screening Assay (CBA): Method 1. Particulars: Jurkat-hPD-1 cells, PE-labeled PD-L1-Ig 20 nM final; read-out: Jurkat HPDL1 PD1 IC50 (uM) (Method 1).
Method: Phycoerythrin (PE) was covalently linked to the Ig epitope tag of human PD-L1-Ig and fluorescently-labeled PD-L1-Ig was used for binding studies with a Jurkat cell line over-expressing human PD-1 (Jurkat-PD-1). Briefly, 8×10^3 Jurkat-hPD-1 cells were seeded into 384 well plates in 20 μl of DMEM supplemented with 10% fetal calf serum. 100 nl of compound was added to cells followed by incubation at 37° C. for 2 hours. Then, 5 μl of PE-labeled PD-L1-Ig (20 nM final), diluted in DMEM supplemented with 10% fetal calf serum. […] Data was collected and processed using a Cell Insight NXT High Content Imager and associated software.
As to `Cc1cccc(C[C@@H]2NC(=O)[C@H](CC(=O)O)NC(=O)[C@H](Cc3ccc(O)cc3)NC(=O)[C@H](Cc3ccccc3)NC(=O)CSC[C@@H](C(=O)N[C@@H](C)C(N)=O)NC(=O)[C@H]([C@@H](C)O)NC(=O)[C@H](C(C)C)NC(=O)[C@H](CC(C)C)NC(=O)[C@H](CCCNC(=N)N)NC(=O)[C@@H](CC(C)C)NC(=O)[C@H](C)N(C)C(=O)[C@H](CCCNC(=N)N)NC(=O)[C@H](Cc3ccc(-c4ccccc4)cc3)NC(=O)[C@H](C(C)C)NC2=O)c1` [Compound 1125] ({CH2CO}-FYD[Phe(3-Me)]V[Bip]R[NMeA][dL]RLVTCA-NH2; thioether N-14), the IC50 worked out at 0.05 µM.
The figure for `Cc1cccc(C[C@@H]2NC(=O)[C@H](CC(=O)O)NC(=O)[C@H](Cc3ccc(OCC(=O)O)cc3)NC(=O)[C@H](Cc3ccncc3)NC(=O)CSC[C@@H](C(=O)N[C@@H](CO)C(N)=O)NC(=O)[C@H](CO)NC(=O)[C@H](C(C)(C)O)NC(=O)[C@H](CC3CCCCC3)NC(=O)[C@H](CCN)NC(=O)[C@@H](CC(C)C)NC(=O)[C@H](C)N(C)C(=O)[C@H](Cc3ccc(C(=O)O)cc3)NC(=O)[C@H](Cc3ccc(-c4ccccc4)cc3)NC(=O)[C@H](Cc3ccc(C(N)=O)cc3)NC2=O)c1` [Compound 2180] ({CH2CO}-[4Pal]Y(Carboxymethyl)D[Phe(3-Me)][Phe(4-CONH2)][Bip][Phe(4-COOH)][NMeA][dL][Dab][Cha][Val(3-OH)]SCS-NH2; thioether N-14) is 0.02 µM; for `CC(C)C[C@@H]1NC(=O)[C@H](Cc2c[nH]c3ccccc23)NC(=O)[C@H](CC(=O)O)NC(=O)[C@H](Cc2ccc(C(=O)O)cc2)NC(=O)[C@H](Cc2ccc(OCC(=O)O)cc2)NC(=O)CSC[C@@H](C(=O)N[C@@H](CO)C(N)=O)NC(=O)[C@H](CO)NC(=O)[C@H](C(C)C)NC(=O)[C@H](CC2CCCCC2)NC(=O)[C@H](CCN)NC(=O)[C@@H](CC(C)C)NC(=O)[C@H](C)N(C)C(=O)[C@H](C(C)C)NC(=O)[C@H](Cc2ccc(-c3ccccc3)cc2)NC1=O` [Compound 1913] ({CH2CO}-Y(Carboxymethyl)[Phe(4-COOH)]DWL[Bip]V[NMeA][dL][Dab][Cha]VSCS-NH2; thioether N-14) it is 0.01 µM.
The figure for `Cc1cccc(C[C@@H]2NC(=O)[C@H](CC(=O)O)NC(=O)[C@H](Cc3ccc(C(=O)O)cc3)NC(=O)[C@H](Cc3ccc(OCC(=O)O)cc3)NC(=O)CSC[C@@H](C(N)=O)NC(=O)[C@H](CCCCN)NC(=O)[C@H](C(C)C)NC(=O)[C@H](CC(C)C)NC(=O)[C@H](CC(N)=O)NC(=O)[C@@H](CC(C)C)NC(=O)[C@H](C)N(C)C(=O)[C@H](C(C)C)NC(=O)[C@H](Cc3ccc(-c4ccccc4)cc3)NC(=O)[C@H](CC(C)C)NC2=O)c1` [Compound 2257] ({CH2CO}-Y(Carboxymethyl)[Phe(4-COOH)]D[Phe(3-Me)]L[Bip]V[NMeA][dL]NLVKC-NH2; thioether N-14) is 0.06 µM; for `CCC(C)[C@@H]1NC(=O)[C@H](Cc2ccc(-c3ccccc3)cc2)NC(=O)[C@H](C(C)C)NC(=O)[C@H](Cc2c[nH]c3ccccc23)NC(=O)[C@H](CC(=O)O)NC(=O)[C@H](Cc2ccc(OCC(=O)O)cc2)NC(=O)[C@H](CN)NC(=O)CSC[C@@H](C(=O)N[C@@H](C)C(N)=O)NC(=O)[C@H](C(C)O)NC(=O)[C@H](C(C)C)NC(=O)[C@H](CC(C)C)NC(=O)[C@H](CCN)NC(=O)[C@@H](CC(C)C)NC(=O)[C@H](C)N(C)C1=O` (stereo partly drawn) [Compound 2084] ({CH2CO}-[Dap]Y(Carboxymethyl)DWV[Bip][Ile(3ξ)][NMeA][dL][Dab]LV[Thr(3ξ)]CA-NH2; thioether N-14) it is 0.07 µM.
The figure for `Cc1cccc(C[C@@H]2NC(=O)[C@H](CC(=O)O)NC(=O)[C@H](Cc3ccc(OCC(=O)O)cc3)NC(=O)[C@H](C(C)O)NC(=O)CSC[C@@H](C(=O)N[C@@H](CCN)C(N)=O)NC(=O)[C@H](CO)NC(=O)[C@H](C(C)(C)O)NC(=O)[C@H](CC3CCCCC3)NC(=O)[C@H](CCN)NC(=O)[C@@H](CC(C)C)NC(=O)[C@H](C)N(C)C(=O)[C@H](Cc3ccc(C(=O)O)cc3)NC(=O)[C@H](Cc3ccc(-c4ccccc4)cc3)NC(=O)[C@H](Cc3ccc(C(=O)O)cc3)NC2=O)c1` (stereo partly drawn) [Compound 2152] ({CH2CO}-[Thr(3ξ)]Y(Carboxymethyl)D[Phe(3-Me)][Phe(4-COOH)][Bip][Phe(4-COOH)][NMeA][dL][Dab][Cha][Val(3-OH)]SC[Dab]-NH2; thioether N-14) is 0.01 µM; for `Cc1cccc(C[C@@H]2NC(=O)[C@H](CC(=O)O)NC(=O)[C@H](Cc3ccc(C(=O)O)cc3)NC(=O)[C@H](Cc3ccc(OCC(=O)O)cc3)NC(=O)CSC[C@@H](C(N)=O)NC(=O)[C@H]([C@@H](C)O)NC(=O)[C@H](C(C)C)NC(=O)[C@H](CC3CCCCC3)NC(=O)[C@H](CC(N)=O)NC(=O)[C@@H](CC(C)C)NC(=O)[C@H](C)N(C)C(=O)[C@H](C(C)C)NC(=O)[C@H](Cc3ccc(-c4ccccc4)cc3)NC(=O)[C@H](CC(C)C)NC2=O)c1` [Compound 1683] ({CH2CO}-Y(Carboxymethyl)[Phe(4-COOH)]D[Phe(3-Me)]L[Bip]V[NMeA][dL]N[Cha]VTC-NH2; thioether N-14) it is 0.03 µM; for `CC(C)C[C@@H]1NC(=O)[C@H](CCN)NC(=O)[C@@H](CC(C)C)NC(=O)[C@H](C)N(C)C(=O)[C@H](CCCNC(N)=O)NC(=O)[C@H](Cc2ccc(-c3ccccc3)cc2)NC(=O)[C@H](C(C)C)NC(=O)[C@H](Cc2c[nH]c3ccccc23)NC(=O)[C@H](CC(=O)O)NC(=O)[C@H](Cc2ccncc2)NC(=O)[C@H](Cc2cccnc2)NC(=O)CSC[C@@H](C(=O)N[C@@H](C)C(N)=O)NC(=O)[C@H]([C@@H](C)O)NC(=O)[C@H](C(C)C)NC1=O` [Compound 1333] ({CH2CO}-[3Pal][4Pal]DWV[Bip][Cit][NMeA][dL][Dab]LVTCA-NH2; thioether N-14) it is 0.02 µM.
Consider `CCCC[C@@H]1NC(=O)[C@H](CCN)NC(=O)[C@@H](CC(C)C)NC(=O)[C@H](C)N(C)C(=O)[C@H](C(C)C)NC(=O)[C@H](Cc2ccc(-c3ccccc3)cc2)NC(=O)[C@H](C(C)C)NC(=O)[C@H](Cc2c[nH]c3ccccc23)NC(=O)[C@H](CC(=O)O)NC(=O)[C@H](Cc2ccc(O)cc2)NC(=O)[C@H](CC(N)=O)NC(=O)CSC[C@@H](C(=O)N[C@@H](C)C(N)=O)NC(=O)[C@H]([C@@H](C)O)NC(=O)[C@H](C(C)C)NC1=O` [Compound 1295] ({CH2CO}-NYDWV[Bip]V[NMeA][dL][Dab][Nle]VTCA-NH2; thioether N-14), for which the half-inhibitory concentration (IC50) was 0.02 µM.
The same measure for `CCCC[C@@H]1NC(=O)[C@H](CCCNC(=N)N)NC(=O)[C@@H](CC(C)C)NC(=O)[C@H](C)N(C)C(=O)[C@H]([C@@H](C)CC)NC(=O)[C@H](Cc2ccc(-c3ccccc3)cc2)NC(=O)[C@H](C(C)C)NC(=O)[C@H](Cc2c[nH]c3ccccc23)NC(=O)[C@H](CC(=O)O)NC(=O)[C@H](Cc2ccc(O)cc2)NC(=O)[C@H](CC(N)=O)NC(=O)CSC[C@@H](C(=O)N[C@@H](C)C(N)=O)NC(=O)[C@H]([C@@H](C)O)NC(=O)[C@H](C(C)C)NC1=O` [Compound 1498] ({CH2CO}-NYDWV[Bip]I[NMeA][dL]R[Nle]VTCA-NH2; thioether N-14): 0.12 µM.
On to `Cc1cccc(C[C@@H]2NC(=O)[C@H](CC(=O)O)NC(=O)[C@H](Cc3ccc(OCC(=O)O)cc3)NC(=O)[C@H]([C@@H](C)O)NC(=O)CSC[C@@H](C(N)=O)NC(=O)[C@H](CCC(N)=O)NC(=O)[C@H](C(C)C)NC(=O)[C@H](CC3CCCCC3)NC(=O)[C@H](CCN)NC(=O)[C@@H](CC(C)C)NC(=O)[C@H](C)N(C)C(=O)[C@H](Cc3ccc(OCC(=O)O)cc3)NC(=O)[C@H](Cc3ccc(-c4ccccc4)cc3)NC(=O)[C@H](Cc3ccc(OCC(=O)O)cc3)NC2=O)c1` [Compound 1671] ({CH2CO}-TY(Carboxymethyl)D[Phe(3-Me)]Y(Carboxymethyl)[Bip]Y(Carboxymethyl)[NMeA][dL][Dab][Cha]VQC-NH2; thioether N-14), for which the IC50 turned out to be 0.09 µM.
The figure for `CC(C)C[C@@H]1NC(=O)[C@H](Cc2c[nH]c3ccccc23)NC(=O)[C@H](CC(=O)O)NC(=O)[C@H](Cc2ccc(OCC(=O)O)cc2)NC(=O)[C@H](Cc2ccccc2)NC(=O)CSC[C@@H](C(=O)NCC(N)=O)NC(=O)[C@H](CO)NC(=O)[C@H](C(C)C)NC(=O)[C@H](CC(C)C)NC(=O)[C@H](CC(N)=O)NC(=O)[C@@H](CC(C)C)NC(=O)[C@H](C)N(C)C(=O)[C@H](C(C)C)NC(=O)[C@H](Cc2ccc(-c3ccccc3)cc2)NC1=O` [Compound 1526] ({CH2CO}-FY(Carboxymethyl)DWL[Bip]V[NMeA][dL]NLVSCG-NH2; thioether N-14) is 0.01 µM.
The same measure for `CC[C@@H](C)[C@@H]1NC(=O)[C@H](Cc2ccc(-c3ccccc3)cc2)NC(=O)[C@H](CC(C)C)NC(=O)[C@H](Cc2c[nH]c3ccccc23)NC(=O)[C@H](CC(=O)O)NC(=O)[C@H](Cc2ccc(C(=O)O)cc2)NC(=O)[C@H](Cc2ccc(OCC(=O)O)cc2)NC(=O)CSC[C@@H](C(=O)N[C@@H](CCCCN)C(N)=O)NC(=O)[C@H](Cc2cnc[nH]2)NC(=O)C(C(C)C)NC(=O)[C@H](CC(C)C)NC(=O)[C@H](CC(N)=O)NC(=O)[C@@H](CC(C)C)NC(=O)[C@H](C)N(C)C1=O` (stereo partly drawn) [Compound 2104] ({CH2CO}-Y(Carboxymethyl)[Phe(4-COOH)]DWL[Bip][aIle][NMeA][dL]NL[ξV]HCK-NH2; thioether N-14): 0.05 µM.
The same measure for `COc1cccc(C[C@@H]2NC(=O)[C@H](CN)NC(=O)CSC[C@@H](C(=O)N[C@@H](C)C(N)=O)NC(=O)[C@H]([C@@H](C)O)NC(=O)[C@H](C(C)C)NC(=O)[C@H](CC(C)C)NC(=O)[C@H](CCN)NC(=O)[C@@H](CC(C)C)NC(=O)[C@H](C)N(C)C(=O)[C@H](CCCNC(=N)N)NC(=O)[C@H](Cc3ccc(-c4ccccc4)cc3)NC(=O)[C@H](C(C)C)NC(=O)[C@H](Cc3c[nH]c4ccccc34)NC(=O)[C@H](CC(=O)O)NC2=O)c1` [Compound 1453] ({CH2CO}-[Dap][Phe(3-OMe)]DWV[Bip]R[NMeA][dL][Dab]LVTCA-NH2; thioether N-14): 0.08 µM.

(Values after patent publication US20240409585A1, “MACROCYCLIC IMMUNOMODULATORS” (priority 2021, published 2024).)
